Measurements taken from patent US20070015777A1, “Use of Inhibitors of the Ubiquitin Proteasome Pathway as a Method of Increasing Contractility of the Heart” (Myogen, Inc., priority 2005, published 2007).
pEC50: −log10 of the molar value. “Also recorded” adds a separate entry of the source. Peptide text beside a SMILES is read from it. * marks the point of attachment. Cbz = O=C(OCc1ccccc1)*

Legend:
[1] = tested on: alpha myosin heavy chain protein; test: Cytoblot assay for alpha myosin heavy chain protein content in NRVM; format: cell-based, rat; conditions: MG132 100 nM, 48 hours, cytoblot (FIG. 1)
Protocol: (§1) NRVM culture. For preparations of neonatal rat ventricular myocytes (NRVMs), hearts were removed from 10-20 newborn (1-2 days old) Sprague-Dawley rats. Isolated ventricles were pooled, minced and dispersed by three 20-minute incubations at 37° C. in Ads buffer (116 mM NaCl, 20 mM HEPES, 10 mM NaH2PO4, 5.5 mM glucose, 5 mM KCl, 0.8 mM MgSO4, pH 7.4) containing collagenase Type 11 (65 units/ml, Worthington) and pancreatin (0.6 mg/ml, GibcoBRL). Dispersed cells were applied to a discontinuous gradient of 40.5% and 58.5% (v/v) Percoll (Amersham Biosciences), centrifuged, and myocytes collected from the interface layer. Myocyte preparations were pre-plated in Dulbecco's modified Eagle's medium (DMEM, Cellgro), supplemented with 10% (v/v) charcoal stripped fetal bovine serum (FBS, HyClone), 4 mM L-glutamine and 1% penicillin/streptomycin for 1 hour at 37° C. to reduce fibroblast contamination, then plated at a density of 2.5×10^5 cells per well on 6-well tissue culture plates (or 10,000 cells/well on 96-well tissue culture plates) coated with a 0.2% (w/v) gelatin solution. […]
(§2) NRVM protein quantitation by cytoblot (alpha myosin, beta myosin, MCIP1). […] Plates were read in a 96-well luminometer (Packard Fusion).

[2] = tested on: β-myosin heavy chain protein; test: Cytoblot assay for beta myosin heavy chain protein content in phenylephrine-treated NRVM; format: cell-based, rat; conditions: phenylephrine 20 μM, MG132 100 and 1000 nM, 48 hours, cytoblot (FIG. 2)
Protocol: as §1, §2

[3] = tested on: SERCA; test: Western blot analysis of NRVM: SERCA; format: cell-based, rat; conditions: with or without phenylephrine 20 μM, MG132 370, 1500 and 3000 nM, 48 hours, Western blot (FIG. 3)
Protocol: (§3) NRVM culture. For preparations of neonatal rat ventricular myocytes (NRVMs), hearts were removed from 10-20 newborn (1-2 days old) Sprague-Dawley rats. Isolated ventricles were pooled, minced and dispersed by three 20-minute incubations at 37° C. in Ads buffer (116 mM NaCl, 20 mM HEPES, 10 mM NaH2PO4, 5.5 mM glucose, 5 mM KCl, 0.8 mM MgSO4, pH 7.4) containing collagenase Type 11 (65 units/ml, Worthington) and pancreatin (0.6 mg/ml, GibcoBRL). Dispersed cells were applied to a discontinuous gradient of 40.5% and 58.5% (v/v) Percoll (Amersham Biosciences), centrifuged, and myocytes collected from the interface layer. […]
(§4) Western Blots. […] Protein concentrations were determined by the bicinchoninic acid method (BCA Protein Assay, Pierce) with bovine serum albumin as a standard. Equivalent quantities of protein samples (10 μg/lane) were denatured in Laemmli buffer and resolved on Tris-glycine SDS-PAGE gels (4-20% acrylamide gradient, Invitrogen). […]

[4] = tested on: phospholamban (PLB); test: Western blot analysis of NRVM: phospholamban; format: cell-based, rat; conditions: with or without phenylephrine 20 μM, MG132 370, 1500 and 3000 nM, 48 hours, Western blot (FIG. 3)
Protocol: as §3, §4

[5] = tested on: phospho-phospholamban; test: Western blot analysis of NRVM: phospho-phospholamban; format: cell-based, rat; conditions: with or without phenylephrine 20 μM, MG132 370, 1500 and 3000 nM, 48 hours, Western blot (FIG. 3)
Protocol: as §3, §4

[6] = tested on: alpha myosin heavy chain; test: Western blot analysis of NRVM: alpha myosin heavy chain; format: cell-based, rat; conditions: with or without phenylephrine 20 μM, MG132 370, 1500 and 3000 nM, 48 hours, Western blot (FIG. 3)
Protocol: as §3, §4

[7] = tested on: atrial natriuretic factor (ANF) secretion; test: Competitive ANF ELISA on media supernatants of phenylephrine-treated NRVM; format: cell-based; conditions: Rattus norvegicus, 48 h, phenylephrine 20 μM, 48 hours (FIG. 4), read-out: EC50 for suppression of PE-induced ANF secretion
Protocol: as §3
(§5) ANF and toxicity assays. ANF in media supernatants was quantitated by competitive ELISA using a monoclonal anti-ANF antibody (Biodesign) and a biotinylated ANF peptide (Phoenix Peptide). Total cellular protein was quantitated by standard Coomassie dye-binding assay; cells were lysed in protein assay reagent (BioRad) and absorbance at A595 was measured after 1 hour. Cytotoxicity was quantitated by measuring release of adenylate kinase (AK) from cultured NRVM into culture medium (ToxiLight kit, Cambrex).

[8] = tested on: NRVM; test: Cytotoxicity assay (adenylate kinase release, ToxiLight) in NRVM; format: cell-based, rat; conditions: 48 hours, at MG132 concentrations that suppress hypertrophy (FIG. 4)
Protocol: as §3, §5

[9] = tested on: modulatory calcineurin interacting protein 1 (MCIP1); test: Cytoblot assay for MCIP1 protein content in NRVM; format: cell-based, rat
Protocol: as §1, §2

[10] = tested on: MCIP1 protein; test: Western blot analysis for MCIP1 protein in NRVM; format: cell-based, rat; conditions: range of MG132 concentrations, 48 hours (FIG. 6)
Protocol: as §3, §4

[11] = tested on: total ubiquitinated protein; test: Western blot analysis for total ubiquitinated protein in NRVM; format: cell-based, rat; conditions: range of MG132 concentrations, 48 hours (FIG. 6)
Protocol: as §3, §4

[12] = tested on: nuclear factor of activated T cells (NFAT); test: Calcineurin-dependent nuclear import of GFP-NFAT in adenovirus-infected NRVM (immunofluorescence); format: cell-based, rat; conditions: NRVM infected with adenovirus encoding activated calcineurin and GFP-NFAT, MG132 1 μM (FIG. 7)
Protocol: as §1, with “solution. After 24 hours in culture, myocyte preparations were transferred to serum-free maintenance medium (DMEM supplemented with 0.1% (v/v) Nutridoma (Roche), L-glutamine and penicillin/streptomycin). Where indicated, NRVM were treated with test compounds for a period of 48 hrs.” for “solution.”

[13] = tested on: neonatal rat ventricular myocytes (NRVMs); conditions: NRVM cell culture model, Dreger 2002; cited from earlier work

Question: Which “alpha myosin heavy chain protein content” value [1] does the source give for `CC(C)C[C@@H](C=O)NC(=O)[C@H](CC(C)C)NC(=O)[C@H](CC(C)C)NC(=O)OCc1ccccc1` [MG132] (Cbz-Leu-Leu-Leu-aldehyde) here?
Answer: significantly increased expression of alpha myosin heavy chain protein; also recorded: increases cardiac alpha myosin heavy chain protein expression

Question: What about the “β-myosin heavy chain protein content” value [2] of the same molecule?
Answer: effectively suppressed adrenergic agonist (phenylephrine) dependent upregulation of beta myosin heavy chain protein; also recorded: suppresses hypertrophic agonist-dependent increases in cardiac beta myosin heavy chain protein expression

Question: What about the “expression of SERCA protein” value [3] of the same molecule?
Answer: increased in vitro expression of cardiac SERCA protein; also recorded: increases expression of SERCA

Question: What about the “expression of phospholamban (PLB)” value [4] of the same molecule?
Answer: decreased expression of the SERCA inhibitory protein, phospholamban (PLB); also recorded: decreases expression of cardiac phospholamban

Question: And the “PLB phosphorylation (phospho-phospholamban)” value [5]?
Answer: dose-dependent increase in PLB phosphorylation; also recorded: increases expression of SERCA, alpha myosin heavy chain and phospho-phospholamban

Question: What about the “expression of alpha myosin heavy chain (Western blot)” value [6] of the same molecule?
Answer: increases expression of SERCA, alpha myosin heavy chain

Question: What about the pEC50 [7] of the same molecule?
Answer: ~7.70

Question: And the “cytotoxicity (release of adenylate kinase)” value [8]?
Answer: no release of adenylate kinase (AK); also recorded: non-cytotoxic concentrations

Question: What about the pEC50 ([9]; Rattus norvegicus, 48 hours, cytoblot (FIG. 5), read-out: EC50 for induction of cardiac MCIP1 expression) of the same molecule?
Answer: 8.00

Question: What about the “MCIP1 protein expression (cytoblot)” value ([9]; range of MG132 concentrations, 48 hours (FIG. 5)) of the same molecule?
Answer: dose-dependent increase in expression of modulatory calcineurin interacting protein 1 (MCIP1); also recorded: increases cardiac modulatory calcineurin interacting protein 1 (MCIP1) protein expression

Question: And the “MCIP1 protein expression (Western blot)” value [10]?
Answer: increases cardiac modulatory calcineurin interacting protein 1 (MCIP1) protein expression

Question: What about the total ubiquitinated protein [11] of the same molecule?
Answer: induced accumulation of ubiquitinated protein

Question: What about the “calcineurin-dependent nuclear import of GFP-NFAT” value [12] of the same molecule?
Answer: blocked the ability of constitutively activated calcineurin to promote nuclear import of NFAT; also recorded: suppresses calcineurin-dependent nuclear import

Question: What about the “anti-hypertrophic effect (β-MyHC levels, cell size and morphology, BNP, sarcomeric actin)” value [13] of the same molecule?
Answer: anti-hypertrophic
